How the values were obtained:
[1] = ABTS+ radical scavenging test; assay type: biochemical; settings: for Inhibition Rate (%): ABTS^+ inhibition, Concentration 250 μM
Experimental: The ABTS^+ radical scavenging test was conducted as reported previously, and was slightly modified. Specifically, the solvent was replaced with DMSO due to the high volatility of 80% methanol. Trolox was used as positive control. The scavenging activities of phenolic compounds 3, 4, and 10–17 were calculated based on the percentage of ABTS^+ radical scavenged using the equation:Inhibition rate (%) = (A blank − A sample)/A blank
IC50 values were calculated according to the Reed and Muench method.

[2] = set-up: method as in PMID 22158590; settings: compound from Cordia sinensis, versus BHA; cited from earlier work
A549 = tested on: A549; set-up: method as in doi:10.1016/j.tet.2021.132224; settings: compounds derived from Phyllanthus acidus; cited from earlier work
Hela cells = tested on: Hela cells; set-up: method as in doi:10.1016/j.tet.2021.132224; settings: compounds derived from Phyllanthus acidus; cited from earlier work
HONE = tested on: HONE; set-up: method as in doi:10.1016/j.tet.2021.132224; settings: compounds derived from Phyllanthus acidus; cited from earlier work
ECA109 = tested on: ECA109; set-up: method as in doi:10.1016/j.tetlet.2013.06.082; settings: compound isolated from Phyllanthus flexuosus; cited from earlier work
[3] = compound from Liriope muscari and Senecio scandens, versus Vitamin C; cited from earlier work
five tumor cell lines = tested on: five tumor cell lines; set-up: method as in PMID 17315965; settings: 40 μM; compound from Aspidopterys obcordate; cited from earlier work

| SMILES | Inhibition Rate (%) [1] | IC50 ([1]; ABTS^+ radical scavenging) | IC50 ([1]; Table S1, ABTS+ inhibition) | also measured |
| --- | --- | --- | --- | --- |
| Cc1c(C)c2c(c(C)c1O)CCC(C)(C(=O)O)O2 (stereo not drawn) [Trolox, reference compound] | 57.26 ± 1.38% | 176 ± 2.1 µM | 176 ± 2.07 µM | – |
| CC(=O)OCCCc1ccc2c(c1)[C@H](CO)[C@@H](c1ccc(O)cc1)O2 [Compound 4, 3-[(2S,3R)-2-(4-hydroxyphenyl)-3-(hydroxymethyl)-2,3-dihydro-1-benzofuran-5-yl] propyl acetate] | 23.71 ± 0.37% | – | – | – |
| COc1cc(CCCOC(C)=O)cc2c1O[C@@H](c1ccc(O)cc1)[C@@H]2CO [Compound 3, 3-[(2R,3S)-2-(4-hydroxyphenyl)-3-(hydroxymethyl)-7-methoxy-2,3-dihydro-1-benzofuran-5-yl]propyl acetate] | 31.16 ± 0.38% | – | – | – |
| O=C(O)/C=C/c1ccc(O)c(O)c1 [Compound 15, trans-caffeic acid] | 49.40 ± 0.72% | 232.9 ± 1.9 µM | 233 ± 1.92 µM | DPPH radical scavenging activity [2]: better DPPH radical scavenging activity than BHA |
| COc1cc(C(O)C(CO)Oc2ccc(CCCOC3OC(CO)C(O)C(O)C3O)cc2OC)ccc1O [Compound 14, 4,7,9-trihydroxy-3,3′-dimethoxy-8-O-4′-neolignan-9′-O-β-D-glucopyranoside] | 39.02 ± 1.35% | 362 ± 8.4 µM | 362 ± 8.39 µM | – |
| C=Cc1c(C)c(O)cc2c1CC[C@@H]1C(C)(C)[C@H](O)CC[C@@]21C [Compound 7, spruceanol] | – | – | – | cytotoxic activity against A549 (A549): weaker cytotoxic activity; cytotoxic activity against Hela cells (Hela cells): weaker cytotoxic activity; cytotoxic activity against HONE (HONE): weaker cytotoxic activity |
| C=Cc1c(C)c(O)cc2c1CC[C@@H]1C(C)(C)[C@H](O)[C@H](O)C[C@@]21C [Compound 6, cleistanthol] | – | – | – | cytotoxic activity against A549 (A549): weaker cytotoxic activity; cytotoxic activity against Hela cells (Hela cells): weaker cytotoxic activity; cytotoxic activity against ECA109 (ECA109): weak cytotoxic activity; cytotoxic activity against HONE (HONE): weaker cytotoxic activity |
| COc1cc([C@H]2Oc3c(OC)cc(CCCOC(C)=O)cc3[C@@H]2CO)ccc1O [Compound 10, 3-[(2S,3R)-2-(4-hydroxy-3-methoxyphenyl)-3-(hydroxymethyl)-7-methoxy-2,3-dihydro-1-benzofuran-5-yl]propyl acetate] | 46.46 ± 0.83% | 348 ± 12.2 µM | 348 ± 12.2 µM | – |
| COc1cc([C@H]2OC[C@@H]3[C@H]2CO[C@H]3c2ccc(O)c(OC)c2)ccc1O [Compound 12, (+) epipinoresinol] | 49.51 ± 1.60% | 387 ± 8 µM | 387 ± 8.03 µM | – |
| COc1cc([C@@H]2OC[C@H]3[C@@H]2CO[C@H]3c2ccc(O)c(OC)c2)ccc1O [Compound 13, (-)-pinoresinol] | 60.12 ± 0.19% | 204 ± 4.7 µM | 204 ± 4.66 µM | antioxidant activities [3]: comparable to that of Vitamin C |
| C=Cc1c(C)c(O)cc2c1CC[C@@H]1C(C)(C)[C@H](O)C(=O)C[C@@]21C [Compound 5, aspidoptoid D] | – | – | – | cytotoxic activity against five tumor cell lines (five tumor cell lines): no significant cytotoxic activity |
